Here are results for 33 compounds from patent US12071404B2, “Aza (indole)-, benzothiophene-, and benzofuran-3-sulfonamides” (UCB Pharma GmbH, priority 2016, dated 2024).

Bounds are passed on as bounds.

Assay [1] has as its target T1, GPR17 (Homo sapiens, UniProt Q13304). Description: cAMP accumulation functional assay (HTRF, Schild analysis). It counts as cell-based. Set-up: host or cells: Flp-In T-REx CHO. The note with it: CHO hGPR17 cells, Schild analysis vs MDL29,951, 5 μM forskolin, read-out: cAMP assay pA2 (converted). The procedure: Flp-In T-REx CHO cells stably expressing human GPR17 receptor (CHO hGPR17) from Evi Kostenis' lab (Bonn University, Germany) were cultured at 37° C. in a humidified atmosphere of 5% CO2. Cells were grown in DMEM with Nutrient Mixture F-12 supplemented with hygromycin B (500 μg/mL) and blasticidin (30 μg/mL). Expression from the Flp-In locus was induced by treatment with doxycycline (1 μg/mL) for 16-20 h prior assays.
GPR17 activation can also recruit Gi-type G-protein signaling, resulting in a decrease of intracellular cyclic adenosine monophosphate (cAMP). Intracellular cAMP changes can be measured using the HTRF cAMP dynamic assay kit from CisBio (Codolet, France). Using homogenous time-resolved fluorescence technology (HTRF), the assay is based on competition between native cAMP produced by cells and cAMP labelled with the dye d2. The tracer binding was determined by an anti-cAMP antibody labeled with cryptate.
CHO hGPR17 were detached with PBS containing EDTA and dispatched in black 384-well plates with 5,000 cells per well. Cells were first incubated for 30 minutes at room temperature in HBSS Hepes (pH 7.4) containing vehicle or varying concentrations of test GPR17 antagonist/inverse agonist compounds. […] After 60 minutes incubation at room temperature, the reaction is terminated and the cells lysed by adding the d2 detection reagent and the cryptate reagent in 10 μL lysis buffer each according to manufacturer's instructions. After 60 minutes incubation, changes in cAMP concentrations are measured according to manufacturer's instructions using an Envision plate reader with laser excitation. All incubations were performed in duplicate. Data was analyzed using GraphPad Prism software using the 4-parameter logistic equation to measure MDL29,951 pEC50s in absence and presence of GPR17 antagonist/inverse agonist test compounds. Dose ratio (DR) were plotted against antagonist concentrations and Schild analysis provided estimated affinity pA2 of GPR17 antagonist/inverse agonist test compounds.
The activities of the Example compounds tested are depicted in the table below. The activity ranges A, B and C refer to pA2 values in the cAMP assay as follows: “A”: pA2<7.5, “B”: pA2 7.5<x≤8.5, “C”: pA2>8.5.

In assay [2] the target is T1, GPR17. Description: Calcium mobilization functional assay (GPR17 Ca2+ assay). It counts as cell-based. Set-up: host or cells: Flp-In T-REx CHO. To be noted: CHO hGPR17 cells, inhibition of 50 nM MDL29,951, Calcium 5 dye, FLIPR; read-out: Ca2+ assay pIC50 (converted). A digest of the protocol:
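pIC50 values were fitted with a 4-parameter logistic curve. They reflect test-compound inhibition of cytosolic Ca2+ release evoked by 50 nM MDL29,951, tracked as Calcium 5 fluorescence at room temperature. Cells were CHO Flp-In T-REx stably carrying human GPR17, induced with doxycycline 1 μg/mL for 16-20 h.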

T1 sequence (Q13304 whole entry): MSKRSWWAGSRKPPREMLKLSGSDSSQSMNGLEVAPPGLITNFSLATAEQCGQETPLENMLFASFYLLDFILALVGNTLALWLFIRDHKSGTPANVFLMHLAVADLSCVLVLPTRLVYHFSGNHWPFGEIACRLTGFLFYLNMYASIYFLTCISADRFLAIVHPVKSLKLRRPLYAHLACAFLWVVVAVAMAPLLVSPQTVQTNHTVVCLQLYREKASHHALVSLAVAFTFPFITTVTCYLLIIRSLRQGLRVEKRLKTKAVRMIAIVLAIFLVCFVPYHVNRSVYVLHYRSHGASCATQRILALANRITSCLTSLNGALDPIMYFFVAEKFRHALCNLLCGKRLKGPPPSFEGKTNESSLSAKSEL

As to `O=S(=O)(Nc1ccc(Cl)cc1F)c1c[nH]c2nc(Br)ccc12` [Compound I-278, 6-bromo-N-(4-chloro-2-fluorophenyl)-1H-pyrrolo[2,3-b]pyridine-3-sulfonamide], the Kb on GPR17 [1] was below 3.16 nM. For the same compound, the IC50 on GPR17 [2] is 3.16 to 31.6 nM.

On to `O=S(=O)(Nc1cccc2nsnc12)c1c[nH]c2c1ccc1cccnc12` [Compound I-73, N-(2,1,3-benzothiadiazol-4-yl)-1H-pyrrolo[3,2-h]quinoline-3-sulfonamide], for which the Kb on GPR17 [1] was below 3.16 nM. Further, at GPR17 [2], the IC50 was 3.16 to 31.6 nM.

In the case of `CCOC(=O)C1CC1c1cc(F)c(NS(=O)(=O)c2c[nH]c3cc(Cl)ccc23)nc1F` (stereo not drawn) [Compound I-359, ethyl 2-(6-{[(6-chloro-1H-indol-3-yl)sulfonyl]amino}-2,5-difluoropyridin-3-yl)cyclopropanecarboxylate], on GPR17 [1], the Kb is 3.16 to 31.6 nM. Besides, at GPR17 [2], the IC50 was 3.16 to 31.6 nM.

Take `O=S(=O)(Nc1cc(F)c(Cl)cc1F)c1c[nH]c2c1ccc1cccnc12` [Compound I-118, N-(4-chloro-2,5-difluorophenyl)-1H-pyrrolo[3,2-h]quinoline-3-sulfonamide]: the Kb at GPR17 [1] is below 3.16 nM. Moreover, at GPR17 [2], the IC50 was below 3.16 nM.

Consider `O=S(=O)(Nc1ccc(I)cn1)c1c[nH]c2cc(Cl)ccc12` [Compound I-280, 6-chloro-N-(5-iodopyridin-2-yl)-1H-indole-3-sulfonamide], for which the Kb at GPR17 [1] was 3.16 to 31.6 nM. Besides, the IC50 at GPR17 [2] was 3.16 to 31.6 nM.

Consider `O=C1OCc2cc(F)c(NS(=O)(=O)c3c[nH]c4nc(Cl)ccc34)cc21` [Compound I-284, 6-chloro-N-(6-fluoro-3-oxo-1,3-dihydro-2-benzofuran-5-yl)-1H-pyrrolo[2,3-b]pyridine-3-sulfonamide], for which, on GPR17 [1], the Kb was above 31.6 nM. Besides, at GPR17 [2], the IC50 was 3.16 to 31.6 nM.

As for `O=S(=O)(Nc1cc(F)c(F)cc1F)c1c[nH]c2c1ccc1cccnc12` [Compound I-67, N-(2,4,5-trifluorophenyl)-1H-pyrrolo[3,2-h]quinoline-3-sulfonamide], the Kb on GPR17 [1] was 3.16 to 31.6 nM. Also, the IC50 on GPR17 [2] is 3.16 to 31.6 nM.

Consider `N#Cc1ccc(NS(=O)(=O)c2c[nH]c3c4c(ccc23)CCC4)c(F)c1` [Compound I-150, N-(4-cyano-2-fluorophenyl)-1,6,7,8-tetrahydrocyclopenta[g]indole-3-sulfonamide], for which the Kb on GPR17 [1] was below 3.16 nM. Moreover, the IC50 at GPR17 [2] is 3.16 to 31.6 nM.

As to `CS(=O)(=O)c1ccc2c(S(=O)(=O)Nc3ccc(I)cc3F)c[nH]c2c1` [Compound I-48, N-(2-fluoro-4-iodophenyl)-6-(methylsulfonyl)-1H-indole-3-sulfonamide], the Kb at GPR17 [1] was 3.16 to 31.6 nM. The IC50 on GPR17 [2] is 3.16 to 31.6 nM.

`O=S(=O)(Nc1ccc(I)cc1F)c1c[nH]c2ncc(I)cc12` [Compound I-101, N-(2-fluoro-4-iodophenyl)-5-iodo-1H-pyrrolo[2,3-b]pyridine-3-sulfonamide]: the IC50 at GPR17 [2] is above 31.6 nM.

Consider `COc1nc(NS(=O)(=O)c2c[nH]c3cc(Br)ccc23)c(F)cc1CC#N` [Compound I-320, 6-bromo-N-[5-(cyanomethyl)-3-fluoro-6-methoxypyridin-2-yl]-1H-indole-3-sulfonamide], for which, at GPR17 [2], the IC50 was below 3.16 nM.

As to `N#Cc1ccc(NS(=O)(=O)c2c[nH]c3c4c(ccc23)CCC4)cc1F` [Compound I-149, N-(4-cyano-3-fluorophenyl)-1,6,7,8-tetrahydrocyclopenta[g]indole-3-sulfonamide], the IC50 at GPR17 [2] was 3.16 to 31.6 nM.

`O=S(=O)(Nc1cccc(Cl)n1)c1c[nH]c2cc(Cl)ccc12` [Compound I-57, 6-chloro-N-(6-chloropyridin-2-yl)-1H-indole-3-sulfonamide]: on GPR17 [2], the IC50 was above 31.6 nM.

With `O=S(=O)(Nc1cccc2c1OCO2)c1c[nH]c2cc(F)ccc12` [Compound I-31, N-(1,3-benzodioxol-4-yl)-6-fluoro-1H-indole-3-sulfonamide], the IC50 on GPR17 [2] was above 31.6 nM.

Turning to `COc1ccc2c(S(=O)(=O)Nc3cccc4c3OC(F)(F)O4)c[nH]c2c1` [Compound I-72, N-(2,2-difluoro-1,3-benzodioxol-4-yl)-6-methoxy-1H-indole-3-sulfonamide], the IC50 at GPR17 [2] is above 31.6 nM.

On to `N#Cc1cc(F)c(NS(=O)(=O)c2c[nH]c3ccccc23)cc1F` [Compound I-145, N-(4-cyano-2,5-difluorophenyl)-1H-indole-3-sulfonamide], for which the IC50 at GPR17 [2] was 3.16 to 31.6 nM.

On to `N#Cc1cc(F)c(NS(=O)(=O)c2c[nH]c3c(Cl)cccc23)cc1F` [Compound I-117, 7-chloro-N-(4-cyano-2,5-difluorophenyl)-1H-indole-3-sulfonamide], for which the IC50 at GPR17 [2] is above 31.6 nM.

For `O=S(=O)(Nc1ccc2nsnc2c1)c1c[nH]c2c3c(ccc12)CCC3` [Compound I-158, N-(2,1,3-benzothiadiazol-5-yl)-1,6,7,8-tetrahydrocyclopenta[g]indole-3-sulfonamide], the IC50 on GPR17 [2] was above 31.6 nM.

As to `COc1cccc2c(S(=O)(=O)Nc3ccc(C#N)cc3F)c[nH]c12` [Compound I-115, N-(4-cyano-2-fluorophenyl)-7-methoxy-1H-indole-3-sulfonamide], the IC50 on GPR17 [2] is above 31.6 nM.

Regarding `O=S(=O)(Nc1cc(F)ccc1F)c1c[nH]c2cc(F)ccc12` [Compound I-37, N-(2,5-difluorophenyl)-6-fluoro-1H-indole-3-sulfonamide], the IC50 at GPR17 [2] was above 31.6 nM.

Regarding `Cc1noc(C)c1-c1ccc2c(S(=O)(=O)Nc3ccc(C#N)cc3F)c[nH]c2c1` [Compound I-234, N-(4-cyano-2-fluorophenyl)-6-(3,5-dimethyl-1,2-oxazol-4-yl)-1H-indole-3-sulfonamide], the IC50 at GPR17 [2] is above 31.6 nM.

In the case of `COc1c(Cl)ccc2c(S(=O)(=O)Nc3cc(F)c(F)cc3F)c[nH]c12` [Compound I-196, 6-chloro-7-methoxy-N-(2,4,5-trifluorophenyl)-1H-indole-3-sulfonamide], the IC50 at GPR17 [2] is above 31.6 nM.

For the compound `O=S(=O)(Nc1ccc(I)cc1F)c1c[nH]c2c1ccc1ccccc12` [Compound I-47, N-(2-fluoro-4-iodophenyl)-1H-benzo[g]indole-3-sulfonamide], the IC50 on GPR17 [2] is above 31.6 nM.

As to `Cc1cc2c(S(=O)(=O)Nc3cc(F)ccc3F)c[nH]c2cc1Br` [Compound I-27, 6-bromo-N-(2,5-difluorophenyl)-5-methyl-1H-indole-3-sulfonamide], the IC50 on GPR17 [2] is above 31.6 nM.

Take `N#CCc1ccc(NS(=O)(=O)c2c[nH]c3cc(Cl)ccc23)cc1` [Compound I-180, 6-chloro-N-[4-(cyanomethyl)phenyl]-1H-indole-3-sulfonamide]: the IC50 on GPR17 [2] is above 31.6 nM.

As to `COc1ccc2c(S(=O)(=O)Nc3cc(F)c(F)cc3F)c[nH]c2c1` [Compound I-2, 6-methoxy-N-(2,4,5-trifluorophenyl)-1H-indole-3-sulfonamide], the IC50 on GPR17 [2] was above 31.6 nM.

Turning to `O=S(=O)(Nc1cc2nsnc2cc1F)c1c[nH]c2cc(F)ccc12` [Compound I-172, 6-fluoro-N-(6-fluoro-2,1,3-benzothiadiazol-5-yl)-1H-indole-3-sulfonamide], the IC50 at GPR17 [2] was 3.16 to 31.6 nM.

Regarding `N#Cc1ccc(NS(=O)(=O)c2c[nH]c3cc(OCC4CCCO4)ccc23)c(F)c1` (stereo not drawn) [Compound I-222, N-(4-cyano-2-fluorophenyl)-6-(tetrahydrofuran-2-ylmethoxy)-1H-indole-3-sulfonamide], the IC50 at GPR17 [2] is above 31.6 nM.

Take `O=S(=O)(Nc1cc(F)cc(F)c1)c1c[nH]c2nc(Br)ccc12` [Compound I-89, 6-bromo-N-(3,5-difluorophenyl)-1H-pyrrolo[2,3-b]pyridine-3-sulfonamide]: the IC50 at GPR17 [2] was above 31.6 nM.

With `N#Cc1ccc(NS(=O)(=O)c2c[nH]c3ccc(Cl)cc23)cc1` [Compound I-17, 5-chloro-N-(4-cyanophenyl)-1H-indole-3-sulfonamide], the IC50 at GPR17 [2] was above 31.6 nM.

For `O=S(=O)(Nc1ccc2ncsc2c1)c1c[nH]c2cc(Cl)ccc12` [Compound I-3, N-(1,3-benzothiazol-6-yl)-6-chloro-1H-indole-3-sulfonamide], the IC50 at GPR17 [2] is above 31.6 nM.

As for `O=S(=O)(Nc1ccc(Cl)cc1F)c1c[nH]c2cc(F)ccc12` [Compound I-51, N-(4-chloro-2-fluorophenyl)-6-fluoro-1H-indole-3-sulfonamide], the IC50 on GPR17 [2] is above 31.6 nM.

`N#Cc1cc(F)c(NS(=O)(=O)c2c[nH]c3c4c(ccc23)CCC4)cc1F` [Compound I-148, N-(4-cyano-2,5-difluorophenyl)-1,6,7,8-tetrahydrocyclopenta[g]indole-3-sulfonamide]: the IC50 at GPR17 [2] is below 3.16 nM.
